Assay results reported in patent publication US5171751A, “Benzofuran/benzofuranalkyl-N-terminal amino hydroxy” (G. D. Searle & Co., priority 1991, dated 1992).
pIC50: −log10 of the molar value. Square brackets hold non-standard residues; d marks the D form. Peptide text beside a SMILES is read from it. * marks the point of attachment. Sta = CC(C)C[C@H](N)[C@@H](O)CC(=O)O; Isovaleryl = CC(C)CC(=O)*

Experiments:
human renin = molecular target: T1, human renin (Homo sapiens, UniProt P00797); assay: In vitro human renin inhibition (angiotensin I determined by radioimmunoassay); assay type: biochemical; settings: 37° C., pH 7.4, two hours
T1 construct: purchased National Institute for Biological Standards, London
T1 sequence (P00797 67-406): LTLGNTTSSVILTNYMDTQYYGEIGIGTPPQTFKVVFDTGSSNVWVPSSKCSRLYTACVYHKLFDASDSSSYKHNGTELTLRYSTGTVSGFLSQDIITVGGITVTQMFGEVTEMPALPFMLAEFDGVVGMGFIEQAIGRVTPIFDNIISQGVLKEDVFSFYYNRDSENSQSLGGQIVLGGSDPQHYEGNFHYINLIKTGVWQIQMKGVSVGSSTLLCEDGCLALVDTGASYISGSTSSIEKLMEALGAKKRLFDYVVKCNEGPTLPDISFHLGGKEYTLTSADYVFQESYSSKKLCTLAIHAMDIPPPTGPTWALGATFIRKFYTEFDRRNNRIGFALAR
Experimental: Compounds of Formula I were evaluated as inhibitors of human renin in an in vitro assay. This human renin inhibition test has been previously described in detail Papaioannou et al., Clinical and Experimental Hypertension, A7(9), 1243-1257 (1985)]. Human renin was obtained from the National Institute for Biological Standards, London. An incubation mixture was prepared containing in a total volume of 0.25 mL 100 mM Tris-acetate buffer at pH 7.4, 25×10^-6 Goldblatt units of renin, 0.05mL of plasma from human volunteers taking oral contraceptives, 6.0 mM sodium EDTA, 2.4 mM phenylmethyl sulfonyl fluoride, 1.5 mM 8-hydroxyquinoline, 0.4 mg/mL BSA, and 0.024 mg/mL neomycin sulfate. This mixture was incubated for two hours at 37° C. in the presence or absence of renin inhibitors. The produced angiotensin I was determined by radioimmunoassay (New England Nuclear kit). Test compounds to be assayed were dissolved in DMSO and diluted with 100mM Tris-acetate buffer at pH 7.4 containing 0.5% BSA to the appropriate concentration. The final concentration of organic solvent in the reaction mixture was less than 1%. Control incubations at 37° C. were used to correct for effects of organic solvent on renin activity.

pepsin = settings: cited from earlier work
renin = settings: cited from earlier work
acid proteases = settings: cited from earlier work
hog renin = settings: after injection of hog renin into nephrectomized rats; cited from earlier work
cathepsin D = settings: cited from earlier work

SMILES	pIC50 (human renin)	inhibitor of pepsin (pepsin)	inhibitor of renin (renin)	inhibiting acid proteases in addition to renin (acid proteases)	reduction of blood pressure in vivo (hog renin)	inhibitor of cathepsin D (cathepsin D)
CC(C)C[C@H](O)[C@H](O)[C@H](CC1CCCCC1)NC(=O)[C@H](C)CNC(=O)CCc1c[nH]c2ccccc12 [Example 22, N-[3-[[1S, 1R^* -(cyclohexylmethyl)-2S^*, 3R^* -dihydroxy-5-methylhexyl]amino]-2S^* -methyl-3-oxopropyl]-1H-indole-3-propanamide]	6.37					
CC(C)CC(=O)N[C@H](C(=O)N[C@H](C(=O)N[C@@H](CC(C)C)[C@@H](O)CC(=O)N[C@@H](C)C(=O)N[C@@H](CC(C)C)[C@@H](O)CC(=O)O)C(C)C)C(C)C [pepstatin] (Isovaleryl-VV[Sta]A[Sta]-OH)		inhibitor	inhibitor	inhibiting acid proteases in addition to renin	reduce blood pressure in vivo	inhibitor
